Test results reported in PubChem BioAssay AID540268 (Broad Institute, 2011).
Several values for one entry are separate records, joined by “and”; a condition that tells them apart may be missing. Equal entries are not always repeated. Activity calls are given as the source filed them. No rule for the calls is given here.

Assay: reduced viability of parasite-Hsp90 expressing yeast – ATP luminescence, 48 h, cherry-picked samples, anti-malarial Hsp90 inhibitor project, dose response (AID 540268);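 as to activity change, negative = inhibition: 0% = neutral control wells and -100% = positive control wells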
Details: yeast expressing the parasite Hsp90, ATP luminescence; for activity change, negative = inhibition: at 26 µM (top of the series)

Structure (SMILES)	AC50	activity change, negative = inhibition
Cc1ccccc1CS(=O)(=O)c1ncc(Cl)c(C(=O)Nc2ccc(F)cc2)n1	4.06 µM	
O=[N+]([O-])c1ccc(C=Nc2ccc(Cl)c([N+](=O)[O-])c2)s1	2.13 µM	
Cc1cc(/C=C2\SC(=S)N(C)C2=O)c(C)n1-c1ccc(O)cc1	8.33 µM	
O=[N+]([O-])c1cccc(C=NNc2ccc3ccccc3n2)c1O	3.63 µM	
O=C(OCC(=O)C12CC3CC(CC(C3)C1)C2)c1ccc(O)cc1O	15.6 µM	
CCCCCCCCCCCCCCCC[n+]1ccccc1	4.03 µM and 3.43 µM	
C/C(CC(=O)Nc1cc(C)ccn1)=N\NC(=O)c1cccc(C)c1O		-51.7% (inactive)
Cc1c(Cc2ccccc2)c(NCCN(C)C)n2c(nc3ccccc32)c1C#N	0.701 µM	
CC1=C/C(=N\OS(=O)(=O)c2ccccc2)C(C(C)C)=CC1=O	0.827 µM	
OC(CNCCC1C=Nc2ccccc21)Cn1c2ccc(Cl)cc2c2cc(Cl)ccc21 (stereo unspecified)	7.56 µM	
O=[N+]([O-])c1cnc(Sc2ccncn2)s1	3.02 µM	
COc1ccc(C2=CC3=C(Br)C(=O)C(C)(OC(=O)c4cccs4)C(=O)C3=CO2)cc1 (stereo unspecified)	4.28 µM	
Oc1ccc(N=Nc2c(O)ccc3ccccc23)cc1	7.02 µM	
CC(=O)NC(c1ccc(C)cc1)c1cc(Cl)c2cccnc2c1O (stereo unspecified)	4.09 µM	
COc1cccc(/C=C/c2ccc3cccc(O)c3n2)c1	< 0.195 µM	
Clc1ccc(C(c2ccc(Cl)cc2)n2cc[n+](CC(OCc3ccc(Cl)cc3Cl)c3ccc(Cl)cc3Cl)c2)cc1 (stereo unspecified)	5.47 µM	
Cc1c(C(=O)NCCSCc2cccc(C(F)(F)F)c2)cnn1-c1ccc(Cl)cc1	8.59 µM	
CC(=NNc1nc2ccccc2o1)c1cc2ccccc2cn1	17.7 µM	
CCOC(=O)/C=C/C(=O)Nc1cccc([N+](=O)[O-])c1	3.5 µM	
O=S(=O)(NC1CC2CCC1C2)c1ccc(Cl)cc1 (stereo unspecified)	3.46 µM	
Oc1c(Br)cc(Br)cc1C=Nc1cccnc1	5.8 µM	
COCC(=O)n1nc(NCc2ccc(OC)cc2)nc1NCc1ccc(OC)cc1	8.06 µM	
CN(C)/C=C/C(=O)c1ccc2noc(-c3cccc(F)c3)c2c1	13.5 µM	

Structure (SMILES)	AC50	activity change, negative = inhibition
O=C(O)c1cccc(NN=C2c3ccccc3-c3ccccc32)c1	5.71 µM	
O=C(Nc1ccccc1)c1nnsc1S(=O)c1ccc(Cl)cc1 (stereo unspecified)	< 0.195 µM	
CCCCCCCCCCC[N+](C)(C)CC/C=C1/c2ccccc2Sc2ccc(Cl)cc21	7.99 µM	
O=C(NNC1=C(C(=O)C(F)(F)F)CCC1)c1ccc(Cl)cc1	1.34 µM	
C=CCc1c(C)c(C#N)c2nc3ccccc3n2c1NCCN(C)C	4.58 µM	
CC1(c2nnc(Cc3ccccc3)o2)CC(c2ccccc2[N+](=O)[O-])=NO1 (stereo unspecified)	1.77 µM	
CCCCN1C(=O)/C(=C/C=C2\Oc3ccccc3N2CC)SC1=S		32.9% (inactive)
On1ccccc1=S	< 0.195 µM	
O=C1OC(c2ccccc2)(c2cc(Br)c(O)c(Br)c2)c2ccccc21 (stereo unspecified)	2.97 µM	
COc1ccccc1NC(=O)COC(=O)c1ccc([N+](=O)[O-])s1	3.02 µM	
CCCC(=O)NC(c1ccco1)c1cc(Cl)c2cccnc2c1O (stereo unspecified)	4.36 µM	
CCC(=O)NC(c1cccs1)c1ccc2cccnc2c1O (stereo unspecified)	7.69 µM	
COc1ccc(-c2nnc3n(CCc4ccccc4)c(=O)c4ccccc4n23)c(OC)c1	8.97 µM	
CC(C)(C)C(O)C(Oc1ccc(Cl)cc1)n1cncn1 (stereo unspecified)	< 0.195 µM	
Cc1ccc(Nc2nc(N)c([N+](=O)[O-])c(N3CCCC(C)C3)n2)cc1C (stereo unspecified)	3.73 µM	
COc1ccc(C)cc1N=Nc1ccc(O)c2ncccc12	1.18 µM	
O=C(O)c1ccccc1NC(c1ccccc1)c1ccc2cccnc2c1O (stereo unspecified)	4.87 µM	
Cc1cc(/C=c2\sc3nc4ccccc4n3c2=O)c(C)n1-c1ccc(C(=O)O)cc1		22.6% (inactive)
CN1C(=O)C(N=Nc2ccc([N+](=O)[O-])cc2)SC1=S (stereo unspecified)	3.87 µM	
CN(C)C(=S)SSC(=S)N(C)C	3.96 µM	
C[C@@]12C(=O)Nc3ccc(Br)cc3C(=O)N1[C@H]1c3ccccc3OC[C@@H]1[C@@H]2c1ccccc1	0.404 µM	
CC(=NNC(=S)N1CC2CCC(CC2)C1)c1ccncn1	2.36 µM	
CCCOC(=O)c1ccc(Oc2cn[nH]c2-c2ccc(OC)cc2O)cc1	6 µM	
